From ChEMBL document CHEMBL4706545, “Antiproliferative effect of mitochondria-targeting allobetulin 1,2,3-triazolium salt derivatives and their mechanism of inducing apoptosis of cancer cells” (Eur J Med Chem, 2020)
Active and inactive are the calls of the source. The calls are words filed in the database; no cut-off is given here.

Key:
[1] = tested on: ECa-109 cell line; experiment: Induction of ROS-mediated apoptosis in human ECa-109 cells assessed as viable cells at 4 uM incubated for 48 hrs in presence of NAC by annexin V-PE and 7-AAD staining based flow cytometry analysis (reference value: 94 %); assay type: functional; conditions: read-out: Activity
[2] = tested on: ECa-109 cell line; experiment: Induction of apoptosis in human ECa-109 cells assessed as late apoptotic cells at 1 uM incubated for 48 hrs by annexin-V-FITC and PI staining based fluorescence microscopic analysis (reference value: 2.01 %); assay type: functional
[3] = tested on: ECa-109 cell line; experiment: Induction of apoptosis in human ECa-109 cells assessed as necrotic cells at 1 uM incubated for 48 hrs by annexin-V-FITC and PI staining based fluorescence microscopic analysis (reference value: 1.19 %); assay type: functional
[4] = tested on: ECa-109 cell line; experiment: Induction of apoptosis in human ECa-109 cells assessed as viable cells at 2 uM incubated for 48 hrs by annexin-V-FITC and PI staining based fluorescence microscopic analysis (reference value: 95.8 %); assay type: functional; conditions: read-out: Activity
[5] = tested on: ECa-109 cell line; experiment: Induction of apoptosis in human ECa-109 cells assessed as early apoptotic cells at 2 uM incubated for 48 hrs by annexin-V-FITC and PI staining based fluorescence microscopic analysis (reference value: 0.971 %); assay type: functional
[6] = tested on: ECa-109 cell line; experiment: Induction of ROS generation in human […] cells incubated for 48 hrs by DCFH-DA staining based fluorescence microscopic analysis; assay type: functional; conditions: dose 1-4 µM
[7] = tested on: ECa-109 cell line; experiment: Induction of ROS-mediated apoptosis in human ECa-109 cells assessed as necrotic cells at 1 uM incubated for 48 hrs by annexin V-PE and 7-AAD staining based flow cytometry analysis (reference value: 0.729 %); assay type: functional
[8] = tested on: ECa-109 cell line; experiment: Induction of ROS-mediated apoptosis in human ECa-109 cells assessed as late apoptotic cells at 2 uM incubated for 48 hrs by annexin V-PE and 7-AAD staining based flow cytometry analysis (reference value: 3.89 %); assay type: functional
[9] = tested on: ECa-109 cell line; experiment: Induction of ROS-mediated apoptosis in human ECa-109 cells assessed as late apoptotic cells at 4 uM incubated for 48 hrs by annexin V-PE and 7-AAD staining based flow cytometry analysis (reference value: 3.89 %); assay type: functional
[10] = tested on: ECa-109 cell line; experiment: Induction of ROS-mediated apoptosis in human ECa-109 cells assessed as necrotic cells at 4 uM incubated for 48 hrs by annexin V-PE and 7-AAD staining based flow cytometry analysis (reference value: 0.729 %); assay type: functional
[11] = tested on: ECa-109 cell line; experiment: Induction of ROS-mediated apoptosis in human ECa-109 cells assessed as late apoptotic cells at 1 uM incubated for 48 hrs in presence of NAC by annexin V-PE and 7-AAD staining based flow cytometry analysis (reference value: 2.98 %); assay type: functional
[12] = tested on: ECa-109 cell line; experiment: Induction of ROS-mediated apoptosis in human ECa-109 cells assessed as late apoptotic cells at 2 uM incubated for 48 hrs in presence of NAC by annexin V-PE and 7-AAD staining based flow cytometry analysis (reference value: 2.98 %); assay type: functional
[13] = tested on: ECa-109 cell line; experiment: Induction of ROS-mediated apoptosis in human ECa-109 cells assessed as late apoptotic cells at 4 uM incubated for 48 hrs in presence of NAC by annexin V-PE and 7-AAD staining based flow cytometry analysis (reference value: 2.98 %); assay type: functional
[14] = tested on: ECa-109 cell line; experiment: Induction of cell cycle arrest in human ECa-109 cells assessed as accumulation in S phase at 1 uM incubated for 48 hrs by PI staining based flow cytometry analysis (reference value: 39.33 %); assay type: functional
[15] = tested on: ECa-109 cell line; experiment: Induction of cell cycle arrest in human ECa-109 cells assessed as accumulation in S phase at 2 uM incubated for 48 hrs by PI staining based flow cytometry analysis (reference value: 39.33 %); assay type: functional
[16] = tested on: ECa-109 cell line; experiment: Induction of cell cycle arrest in human ECa-109 cells assessed as accumulation in G2/M phase at 2 uM incubated for 48 hrs by PI staining based flow cytometry analysis (reference value: 8.39 %); assay type: functional
[17] = tested on: ECa-109 cell line; experiment: Induction of cell cycle arrest in human ECa-109 cells assessed as accumulation in G2/M phase at 4 uM incubated for 48 hrs by PI staining based flow cytometry analysis (reference value: 8.39 %); assay type: functional
[18] = tested on: ECa-109 cell line; experiment: Induction of apoptosis in human ECa-109 cells assessed as decrease in caspase-9 incubated for 48 hrs by Western blot analysis; assay type: functional, cell-based; conditions: dose 1-4 µM
[19] = tested on: ECa-109 cell line; experiment: Induction of apoptosis in human ECa-109 cells assessed as upregulation of Bax incubated for 48 hrs by Western blot analysis; assay type: functional, cell-based; conditions: dose 1-4 µM
[20] = tested on: SGC-7901; experiment: Induction of mitochondrial membrane potential disruption in human SGC-7901 cells incubated for 48 hrs by JC-1 dye based flow cytometry analysis; conditions: Mitochondria, dose 1-4 µM
[21] = tested on: SGC-7901; experiment: Induction of apoptosis in human SGC-7901 cells at 1 to 4 uM incubated for 48 hrs by AO/PI staining based fluorescence microscopic analysis; assay type: functional, cell-based; conditions: dose 1-4 µM
[22] = tested on: SGC-7901; experiment: Induction of apoptosis in human SGC-7901 cells assessed as necrotic cells at 4 uM incubated for 48 hrs by annexin-V-FITC and PI staining based fluorescence microscopic analysis (reference value: 1.03 %); assay type: functional
[23] = tested on: SGC-7901; experiment: Induction of ROS-mediated apoptosis in human SGC-7901 cells assessed as viable cells at 1 uM incubated for 48 hrs by annexin V-PE and 7-AAD staining based flow cytometry analysis (reference value: 93.6 %); assay type: functional; conditions: read-out: Activity
[24] = tested on: SGC-7901; experiment: Induction of ROS-mediated apoptosis in human SGC-7901 cells assessed as necrotic cells at 1 uM incubated for 48 hrs by annexin V-PE and 7-AAD staining based flow cytometry analysis (reference value: 0.733 %); assay type: functional
[25] = tested on: SGC-7901; experiment: Induction of ROS-mediated apoptosis in human SGC-7901 cells assessed as necrotic cells at 2 uM incubated for 48 hrs by annexin V-PE and 7-AAD staining based flow cytometry analysis (reference value: 0.733 %); assay type: functional
[26] = tested on: SGC-7901; experiment: Induction of ROS-mediated apoptosis in human SGC-7901 cells assessed as viable cells at 4 uM incubated for 48 hrs by annexin V-PE and 7-AAD staining based flow cytometry analysis (reference value: 93.6 %); assay type: functional; conditions: read-out: Activity
[27] = tested on: SGC-7901; experiment: Induction of ROS-mediated apoptosis in human SGC-7901 cells assessed as late apoptotic cells at 1 uM incubated for 48 hrs in presence of NAC by annexin V-PE and 7-AAD staining based flow cytometry analysis (reference value: 3.45 %); assay type: functional
[28] = tested on: SGC-7901; experiment: Induction of ROS-mediated apoptosis in human SGC-7901 cells assessed as viable cells at 2 uM incubated for 48 hrs in presence of NAC by annexin V-PE and 7-AAD staining based flow cytometry analysis (reference value: 94.8 %); assay type: functional; conditions: read-out: Activity
[29] = tested on: SGC-7901; experiment: Induction of cell cycle arrest in human SGC-7901 cells assessed as accumulation in G0/G1 phase at 2 uM incubated for 48 hrs by PI staining based flow cytometry analysis (reference value: 57.39 %); assay type: functional
[30] = tested on: SGC-7901; experiment: Induction of cell cycle arrest in human SGC-7901 cells assessed as accumulation in G2/M phase at 2 uM incubated for 48 hrs by PI staining based flow cytometry analysis (reference value: 11.48 %); assay type: functional
[31] = tested on: SGC-7901; experiment: Induction of cell cycle arrest in human SGC-7901 cells assessed as accumulation in S phase at 4 uM incubated for 48 hrs by PI staining based flow cytometry analysis (reference value: 31.13 %); assay type: functional
[32] = tested on: SGC-7901; experiment: Induction of apoptosis in human SGC-7901 cells assessed as decrease in caspase-9 incubated for 48 hrs by Western blot analysis; assay type: functional, cell-based; conditions: dose 1-4 µM

COc1ccccc1Cn1n[n+](C)c2c1C(C)(C)[C@@H]1CC[C@]3(C)[C@H](CC[C@@H]4[C@H]5[C@H]6OC[C@@]5(CCC6(C)C)CC[C@]43C)[C@@]1(C)C2.[I-]
viability at 4 µM [1]: 13.8%
Activity [2]: 12.9%
Activity [3]: 0.624%
viability at 2 µM [4]: 55.1%
Activity [5]: 20.5%
Activity [6]: Dose-dependent effect
Activity [7]: 2.92%
Activity [8]: 28.7%
Activity [9]: 95%
Activity [10]: 2.19%
Activity [11]: 13.7%
Activity [12]: 18.2%
Activity [13]: 78.9%
Activity [14]: 35.03%
Activity [15]: 40.19%
Activity [16]: 16.84%
Activity [17]: 22.73%
Activity [18]: Dose-dependent effect
Activity [19]: Dose-dependent effect

C[n+]1nn(Cc2c(F)cccc2Cl)c2c1C[C@]1(C)[C@H]3CC[C@@H]4[C@H]5[C@H]6OC[C@@]5(CCC6(C)C)CC[C@@]4(C)[C@]3(C)CC[C@H]1C2(C)C.[I-]
Activity [20]: Dose-dependent effect
Activity [21]: Active
Activity [22]: 0.158%
viability at 1 µM [23]: 80.5%
Activity [24]: 0.838%
Activity [25]: 0.956%
viability at 4 µM [26]: 0.152%
Activity [27]: 4.96%
viability at 2 µM [28]: 71.3%
Activity [29]: 74.64%
Activity [30]: 9.6%
Activity [31]: 22.27%
Activity [32]: Dose-dependent effect
